{"source": "paper PMC8569811", "about": "“The Nonphysiological Reductant Sodium Dithionite and [FeFe] Hydrogenase: Influence on the Enzyme Mechanism” (Journal of the American Chemical Society, 2021)", "key": {"[1]": {"molecular_target": "T1, CrHydA1 ([FeFe] hydrogenase) (Chlamydomonas reinhardtii, UniProt Q9FYU1)", "T1 construct": "gene hyd1; CrHydA1^PDT (chemical variant with propane dithiolate bridging ligand in [2Fe]H)", "T1 sequence (Q9FYU1 57-497)": "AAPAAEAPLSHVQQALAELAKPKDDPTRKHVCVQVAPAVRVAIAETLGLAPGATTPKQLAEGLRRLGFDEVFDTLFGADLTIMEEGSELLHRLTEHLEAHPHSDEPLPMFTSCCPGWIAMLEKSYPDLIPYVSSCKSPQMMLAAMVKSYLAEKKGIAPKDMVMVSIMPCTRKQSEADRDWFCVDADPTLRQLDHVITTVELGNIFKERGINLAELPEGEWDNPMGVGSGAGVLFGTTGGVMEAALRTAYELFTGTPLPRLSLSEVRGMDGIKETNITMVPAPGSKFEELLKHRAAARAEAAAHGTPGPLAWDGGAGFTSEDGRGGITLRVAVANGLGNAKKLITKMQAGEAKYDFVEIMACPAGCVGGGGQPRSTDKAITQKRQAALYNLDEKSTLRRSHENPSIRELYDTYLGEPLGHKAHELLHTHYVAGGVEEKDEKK", "test": "IR titration with Na2SO3 (source of SO2) at pH […] and […] fit", "assay_type": "binding"}, "[2]": {"molecular_target": "T2, CpHydA1 ([FeFe] hydrogenase HydA1) (Clostridium pasteurianum, UniProt P29166)", "T2 sequence (P29166 1-574)": "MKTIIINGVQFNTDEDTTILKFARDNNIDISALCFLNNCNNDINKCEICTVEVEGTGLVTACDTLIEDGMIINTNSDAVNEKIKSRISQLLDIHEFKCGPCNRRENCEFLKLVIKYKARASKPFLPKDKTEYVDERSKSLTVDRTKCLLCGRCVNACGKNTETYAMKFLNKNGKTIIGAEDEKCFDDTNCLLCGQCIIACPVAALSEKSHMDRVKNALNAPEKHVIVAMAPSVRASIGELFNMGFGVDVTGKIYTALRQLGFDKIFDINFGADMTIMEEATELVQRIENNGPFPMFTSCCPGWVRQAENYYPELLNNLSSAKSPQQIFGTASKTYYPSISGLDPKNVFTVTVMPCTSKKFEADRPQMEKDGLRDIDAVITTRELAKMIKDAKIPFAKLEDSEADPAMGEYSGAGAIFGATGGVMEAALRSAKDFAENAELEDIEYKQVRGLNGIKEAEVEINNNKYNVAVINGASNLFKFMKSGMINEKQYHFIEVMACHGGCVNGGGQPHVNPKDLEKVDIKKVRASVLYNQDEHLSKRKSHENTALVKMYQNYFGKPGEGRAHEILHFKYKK", "test": "IR spectroscopy, conversion to HoxH with Na2SO3 at low pH", "assay_type": "binding"}}, "data": [{"smiles": "O=S=O", "note": "[SO2]", "values": [{"measurement": "Kd", "setting": "[1]", "result": "~500", "unit": "nM"}, {"measurement": "IR spectroscopy, conversion to HoxH with Na2SO3 at low pH", "setting": "[2]", "result": "SO2 binding caused formation of HoxH not only with CrHydA1 but also with the bacterial enzymes CpHydA1 and DdHydAB"}]}]}
